Laboratory results published in patent publication US20020137929A1, “1 - (3-heterocyclylphenyl) isothiourea, -isourea, -guanidine and -amidine herbicidal agents” (Intellectual Property Department, BASF Aktiengesellschaft, priority 1998, published 2002).

Assays:
SETVI (Foxtail, Green) = test: Postemergence herbicidal evaluation; type: in vivo, Setaria viridis; details: postemergence
Procedure, shortened: (§1)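 Young plants, roughly two weeks from seeding, receive the active ingredient as a sprayed dispersion (acetone/water 50/50, 0.5% TWEEN 20) at 40 psi. Doses span about 0.0156 to 0.500 kg/ha. A visual score from 0 to 9 compares treated with control plants four to five weeks on.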

CYPIR (Rice Flatsedge) = test: Postemergence weed control under flooded paddy conditions; type: in vivo, Cyperus iria; details: postemergence weeds, rated 3 to 4 weeks after treatment
Procedure, shortened: (§2)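 Weeds 3 to 5 cm tall and rice seedlings at the 1.5 to 2.5 leaf stage were flooded, with water held 1.5 to 3 cm above the soil. Compounds in 50/50 v/v aqueous/acetone went into the flood water at about 0.0313 to 0.500 kg/ha. Visual 0-9 ratings versus control were made 3 to 4 weeks later.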

CASOB (Sicklepod) = test: Preemergence herbicidal evaluation; type: in vivo, Cassia obtusifolia; details: rated 4-5 weeks after treatment
Procedure, shortened: (§3)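 Preemergence soil application of compound, sprayed in aqueous acetone at rates equivalent to about 0.0156 to 0.500 kg per hectare onto freshly sown cups. Plant response was judged by eye on a 0-9 scale four to five weeks later.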

ZEAMX (Corn, Field) = test: Postemergence herbicidal evaluation; type: in vivo, Zea mays; details: postemergence
Procedure, shortened: as §1

[1] = test system: IPOHE (Morningglory, Ivyleaf); test: Preemergence herbicidal evaluation; type: in vivo, Ipomoea hederacea; details: rated 4-5 weeks after treatment
Procedure, shortened: as §3

[2] = test system: ECHORC (Watergrass (Calif.)); test: Preemergence weed control under flooded paddy conditions; type: in vivo, Echinochloa oryzoides; details: rated 3-4 weeks after treatment
Procedure, shortened: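 Flooded-pot preemergence screen with silt loam and seeds in the upper 0.5 cm. Dose about 0.0313 to 0.500 kg/ha, delivered into flood water; visual 0-9 score after 3 to 4 weeks.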

[3] = test system: GLXMAW (Soybean, Williams); test: Postemergence herbicidal evaluation; type: in vivo, Glycine max, (L.) Merr. cv Williams; details: postemergence
Procedure, shortened: as §1

ECHCG (Barnyardgrass) = test: Preemergence herbicidal evaluation; type: in vivo, Echinochloa crus-galli; details: rated 4-5 weeks after treatment
Procedure, shortened: as §3

ABUTH (Velvetleaf) [4] = test: Postemergence herbicidal evaluation; type: in vivo, Abutilon theophrasti; details: postemergence
Procedure, shortened: as §1

AMBEL (Ragweed, Common) = test: Preemergence herbicidal evaluation; type: in vivo, Ambrosia artemisifolia; details: rated 4-5 weeks after treatment
Procedure, shortened: as §3

ABUTH (Velvetleaf) [5] = test: Preemergence herbicidal evaluation; type: in vivo, Abutilon theophrasti; details: rated 4-5 weeks after treatment
Procedure, shortened: as §3

[6] = test system: ECHORC (Watergrass (Calif.)); test: Postemergence weed control under flooded paddy conditions; type: in vivo, Echinochloa oryzoides; details: postemergence weeds, rated 3 to 4 weeks after treatment
Procedure, shortened: as §2

[7] = test system: IPOHE (Morningglory, Ivyleaf); test: Postemergence herbicidal evaluation; type: in vivo, Ipomoea hederacea; details: postemergence
Procedure, shortened: as §1

CYPSE (Flatsedge) = test: Preemergence weed control under flooded paddy conditions; type: in vivo, Cyperus serotinus; details: rated 3-4 weeks after treatment
Procedure, shortened: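 Seeds or propagules sown in silt loam kept flooded 1.5-3 cm; compounds in 50/50 acetone/water pipetted into flood water at about 0.0313 to 0.500 kg/ha. Greenhouse; visual 0-9 rating versus untreated control 3-4 weeks after treatment.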

Cn1c(C(F)(F)F)cc(=O)n(-c2cc(N=C3SCC(=O)N3CC(=O)OCC#N)c(Cl)cc2F)c1=O [Compound 109, 2-{{2-Chloro-5-[3,6-dihydro-3-methyl-2,6-dioxo-4-(trifluoromethyl)-1(2H)-pyrimidinyl]-4-fluorophenyl}imino}-4-oxo-3-thiazolidineacetic acid, ester with glycolonitrile]
5.0: Preemergence herbicidal rating IPOHE ([1]; rate 0.0625 kg/ha)
6.0: herbicidal rating SETVI (SETVI (Foxtail, Green); rate 0.0158 kg/ha)
6.5: Preemergence herbicidal rating CASOB (CASOB (Sicklepod); rate 0.0156 kg/ha) | Preemergence herbicidal rating CASOB (CASOB (Sicklepod); rate 0.1250 kg/ha) | herbicidal rating ZEAMX (ZEAMX (Corn, Field); rate 0.0158 kg/ha) | herbicidal rating ZEAMX (ZEAMX (Corn, Field); rate 0.0315 kg/ha) | Preemergence herbicidal rating ABUTH (ABUTH (Velvetleaf) [5]; rate 0.0156 kg/ha) | CYPSE herbicidal effect rating (CYPSE (Flatsedge); 0.2500 kg/ha)
4.5: CYPSE herbicidal effect rating (CYPSE (Flatsedge); 0.0313 kg/ha)
8.0: Preemergence herbicidal rating IPOHE ([1]; rate 0.1250 kg/ha) | Preemergence herbicidal rating IPOHE ([1]; rate 0.2500 kg/ha) | herbicidal rating GLXMAW ([3]; rate 0.0315 kg/ha) | herbicidal rating GLXMAW ([3]; rate 0.0630 kg/ha) | Preemergence herbicidal rating AMBEL (AMBEL (Ragweed, Common); rate 0.0625 kg/ha)
8.5: Preemergence herbicidal rating ECHCG (ECHCG (Barnyardgrass); rate 0.2500 kg/ha)
9.0: herbicidal rating SETVI (SETVI (Foxtail, Green); rate 0.0630 kg/ha) | Preemergence herbicidal rating CASOB (CASOB (Sicklepod); rate 0.2500 kg/ha) | Preemergence herbicidal rating CASOB (CASOB (Sicklepod); rate 0.5000 kg/ha) | Preemergence herbicidal rating IPOHE ([1]; rate 0.5000 kg/ha) | ECHORC herbicidal effect rating ([2]; 0.0313 kg/ha) | ECHORC herbicidal effect rating ([2]; 0.0625 kg/ha) | ECHORC herbicidal effect rating ([2]; 0.1250 kg/ha) | ECHORC herbicidal effect rating ([2]; 0.2500 kg/ha) | Preemergence herbicidal rating ECHCG (ECHCG (Barnyardgrass); rate 0.5000 kg/ha) | herbicidal rating ABUTH (ABUTH (Velvetleaf) [4]; rate 0.0158 kg/ha) | herbicidal rating ABUTH (ABUTH (Velvetleaf) [4]; rate 0.0315 kg/ha) | herbicidal rating ABUTH (ABUTH (Velvetleaf) [4]; rate 0.0630 kg/ha) | Preemergence herbicidal rating AMBEL (AMBEL (Ragweed, Common); rate 0.1250 kg/ha) | Preemergence herbicidal rating AMBEL (AMBEL (Ragweed, Common); rate 0.2500 kg/ha) | Preemergence herbicidal rating AMBEL (AMBEL (Ragweed, Common); rate 0.5000 kg/ha) | Preemergence herbicidal rating ABUTH (ABUTH (Velvetleaf) [5]; rate 0.0313 kg/ha) | Preemergence herbicidal rating ABUTH (ABUTH (Velvetleaf) [5]; rate 0.0625 kg/ha) | Preemergence herbicidal rating ABUTH (ABUTH (Velvetleaf) [5]; rate 0.1250 kg/ha) | Preemergence herbicidal rating ABUTH (ABUTH (Velvetleaf) [5]; rate 0.2500 kg/ha) | Preemergence herbicidal rating ABUTH (ABUTH (Velvetleaf) [5]; rate 0.5000 kg/ha) | Herbicidal rating ECHORC ([6]; Rate 0.2500 kg/ha) | herbicidal rating IPOHE ([7]; rate 0.0158 kg/ha) | herbicidal rating IPOHE ([7]; rate 0.0315 kg/ha) | herbicidal rating IPOHE ([7]; rate 0.0630 kg/ha) | CYPSE herbicidal effect rating (CYPSE (Flatsedge); 0.1250 kg/ha)
3.0: Preemergence herbicidal rating AMBEL (AMBEL (Ragweed, Common); rate 0.0156 kg/ha) | Preemergence herbicidal rating AMBEL (AMBEL (Ragweed, Common); rate 0.0313 kg/ha)
5.5: Preemergence herbicidal rating CASOB (CASOB (Sicklepod); rate 0.0625 kg/ha) | CYPSE herbicidal effect rating (CYPSE (Flatsedge); 0.0625 kg/ha)
7.0: herbicidal rating SETVI (SETVI (Foxtail, Green); rate 0.0315 kg/ha) | Herbicidal rating CYPIR (CYPIR (Rice Flatsedge); Rate 0.2500 kg/ha) | herbicidal rating ZEAMX (ZEAMX (Corn, Field); rate 0.0630 kg/ha) | herbicidal rating GLXMAW ([3]; rate 0.0158 kg/ha) | Preemergence herbicidal rating ECHCG (ECHCG (Barnyardgrass); rate 0.1250 kg/ha) | Herbicidal rating ECHORC ([6]; Rate 0.1250 kg/ha)
4.0: Herbicidal rating CYPIR (CYPIR (Rice Flatsedge); Rate 0.1250 kg/ha) | Preemergence herbicidal rating CASOB (CASOB (Sicklepod); rate 0.0313 kg/ha) | Preemergence herbicidal rating ECHCG (ECHCG (Barnyardgrass); rate 0.0625 kg/ha)
0.0: Herbicidal rating CYPIR (CYPIR (Rice Flatsedge); Rate 0.0313 kg/ha)
2.5: Preemergence herbicidal rating ECHCG (ECHCG (Barnyardgrass); rate 0.0313 kg/ha)
1.5: Preemergence herbicidal rating ECHCG (ECHCG (Barnyardgrass); rate 0.0156 kg/ha)
2.0: Herbicidal rating CYPIR (CYPIR (Rice Flatsedge); Rate 0.0625 kg/ha) | Preemergence herbicidal rating IPOHE ([1]; rate 0.0156 kg/ha) | Preemergence herbicidal rating IPOHE ([1]; rate 0.0313 kg/ha) | Herbicidal rating ECHORC ([6]; Rate 0.0313 kg/ha) | Herbicidal rating ECHORC ([6]; Rate 0.0625 kg/ha)
